Measured values: patent US12534707B2, “Method for generating cardiac tissue mimetics” (GENOME BIOLOGICS UG, priority 2019, dated 2026)
Entries after “also recorded” stand apart in the source; their conditions may differ.

Columns and labels:
[1] = test system: cardiac tissue mimetics (CTMs); assay: Contractility measurement of CTMs (spontaneous beats per minute; pacing at 1 Hz and 15 V); settings: PE-treated vs control, electric pacing 1 Hz; FIG. 8
[2] = test system: cardiac tissue mimetics (CTMs); assay: Fluorescence immunohistochemistry of CTMs (α-actinin, WGA, Atp5a1); format: cell-based, rat, human
Protocol: Cryosections of CTMs were stained with DAPI, anti-α-Actinin and Alexa Flour conjugate of Wheat-Germ-Agglutinin. Area of 100 cardiomyocytes per condition were quantified using ImageJ. In case of whole mount stainings, CTMs were permeabilized with 0.2% Triton® X-100 in PBS for 1 hour at room temperature followed by blocking with 5% horse serum (Sigma-Aldrich) in PBS for 30 minutes at room temperature. Primary antibodies (see Table 1) were diluted 1:200 in 5% horse serum and incubated over night at 4° C. Before using the secondary antibody (see table below), CTMs were washed three times with PBS containing 1% Tween 20 and 0.002% Triton® X-100 (referred as PBT from here after) for 20 minutes at room temperature. Secondary antibodies (1:500) and DAPI (1:1000; Carl-Roth GmbH & Co. KG) were diluted in 5% horse serum together and incubated for 4 hours at room temperature in the dark. […] Cryo-sections were prepared by embedding fixed spheroids in O.C.T medium (Tissue-Tek), snap-freezing them in liquid nitrogen and cutting them in 10 μm thick sections. Sections were permeabilized and blocked for one hour in 0.1% Triton® X100 (in PBS+BSA). Primary antibody incubated with the sections diluted 1:50-1:100 in 1 mM MgCl2, 1 mM CaCl2, 0.1 mM MnCl2, 1% Triton® X-100 or 0.2% saponin over night at 4° C. […]

[3] = test system: cardiac tissue mimetics (CTMs); assay: Seahorse assay (OCR, ECAR) of CTMs; format: cell-based, rat, human; settings: PE-treated vs control CTMs
Protocol: The Agilent Seahorse XFe96 spheroid microplate was coated with Poly-D Lysine 100 μg/mL following the manual instruction. 1×KHB medium (111 mM NaCl, 4.7 mM KCl, 2 mM MgSO4, 1.2 mM Na2HPO4, 2.5 mM D-Glucose, 0.5 mM carnitine) supplemented with 6 mM D-Glucose was prepared prior the experiment. CTMs were washed twice with KHB medium and every single CTM was then transferred directly into each well of XFe96 spheroid microplate containing 175 μL of KHB medium. CTMs were centered into the micro-chamber and incubated at 37° C. in non-CO2 incubator for 1 hour. The Seahorse XF Cell Mito Stress Test was performed using sequential injection of Oligomycin (2.5 μM, Sigma, O4876), FCCP (2.0 μM, Sigma, C2920) and Antimycin A (0.5 μM, Sigma, A8674) following a 3-min-mixing and 3-min-measuring cycles for up to 2 hours. Oxygen consumption rate (OCR) and Extracellular acidification rate (ECAR) were measured and calculated using Seahorse XFe96 Analyzers (Agilent Technologies).

[4] = test system: CTMs obtained from human iPSC; assay: Stress response of CTMs obtained from human iPSC (contraction frequency, volume, lactate); format: cell-based; settings: 200 μM PE
Protocol: After 10 days of culture, CTMs were treated with 200 μM Phenylephrine (PE), and in parallel, were cultured under conditions of hypoxia (3% O2). Videos of contracting CTMs were recorded for 1 min and analysed to observe the response. The contraction frequency was measured at day 3 (to obtain a short-term response) and day 20 (to obtain a long-term response). […] Human iPS cardiomyocytes (hiPS-CMs) were ordered from Fujifilm CDI and thawed before the culture. Human cardiac fibroblasts (hCFB) were cultured and trypsinized. The two cell types were mixed at a CM:FB ratio of 5:1 in plating medium (PM provided by CDI). The mixed cells were left to form cardiac tissue mimetics in 30 μL hanging drops containing PM with a density of 5000 hiPS-CMs and 1000 hCFB and incubated at 37° for four days. The cardiac tissue mimetics were then collected, and every single cardiac tissue mimetic was again distributed into each well of ultra-low-attachment (ULA) plates with maintenance medium (MM; provided by CDI). MM was changed every two days. After seven days, human IPS endothelial cells (hiPS-ECs) were thawed and added into each well at a CM:EC ratio of 2:1. A mixed medium of MM and EC growth medium (EGM; provided by CDI) at a 1:1 ratio was used and half of the medium was changed every second day. After 10 days cardiac tissue mimetics were harvested for further assays.

[5] = test system: cardiac tissue mimetics (CTMs); assay: CTM size measurement; settings: 200 μM PE, 10 days, vs untreated control; FIG. 4
[6] = test system: cardiac tissue mimetics (CTMs); assay: Lactate dehydrogenase assay and toxicity assay (phospho-Histone H2A.X) of CTMs; format: cell-based, rat, human
Protocol: Media of CTMs were replaced completely with fresh medium 24 h before performing the assays. After 24 h, supernatants were collected and in maximum 50 μL of each supernatant was used for every measurement with the Lactate Dehydrogenase Activity Kit (Sigma; MAK066). To determine enzyme activity, the absorbance at 450 nm (A450) was measured with the CLARIOstar plate reader (BMG Labtech). LDH activity were calculated following the manufacturer's instruction. CTMs that incubated with 0.2% H2O2 in medium for 30 minutes at 37° C. served as positive control.

[7] = test system: cardiac tissue mimetics (CTMs); assay: CTM vascularisation (GFP-HUVEC sprout length, thickness, branch points); format: cell-based, rat, human; settings: 200 μM PE, 10 days, vs control; for filopodia formation in CTMs: FIG. 13; for vascularization / angiogenesis of CTMs: FIGS. 13, 14, 36
HUVEC spheroids = assay: Spheroid-based angiogenic sprouting assay; format: cell-based, human
Protocol: After 72 hours, cell culture supernatants were centrifuged (500×g, 5 minutes) to deplete dead cells and stored at −80° C.
Endothelial cell sprouting was studied by in vitro spheroid-based angiogenesis assays. In brief, HUVECs were trypsinized and transferred into a mixture of fully supplemented EBM™ and methylcellulose (80%:20%). […] After 24 hours, spheroids were collected, pelleted (200×g, 3 minuted), resuspended in methylcellulose supplemented with FCS (80%:20%) and embedded in a collagen Type-I gel (Corning; 354236). HUVEC spheroids were then either cultured with fully supplemented EBM (+/−VEGF (50 ng/mL; BioLegend; 583702) or +/−PE (200 μM)), maintenance medium or conditioned cell culture medium.

[8] = test system: cardiac tissue mimetics (CTMs); assay: mRNA expression in CTMs (qPCR of titin isoforms, bulk RNA sequencing); format: cell-based, rat, human
Protocol: CTMs, heart tissues of neonatal pups and adult rats were collected into Lysing Matrix D tubes (MP Biomedical; 6913-500) and 700 μL of TriFast (VWR; 3010-100ML) was added. Cells and tissues were homogenized 3 times for 20 s following by 5 min. pause on ice. Total RNA was purified with the Direct-zol™ RNA MicroPrep kit (Zymo Research; R2060). The RNA concentration was determined by measuring absorption at 260 nm and 280 nm with the NanoDrop® ND 2000-spectrophotometer (Peq Lab).
cDNA was synthesized from 500 ng of total RNA with EcoDry Premix RNA to cDNA (Random Hexamers) (Clontech; 639546). qPCR was performed using 10 μL of iTaq™ Universal SYBR® Green Supermix (Bio-Rad; 172-5124), 1 μL of 10 μmol/L forward and reverse primer each, 1 μL of cDNA template and 7 μL of H2O in a Bio-Rad CFX96 Connect Real-Time PCR system. Primers using to quantify mRNA expression were ordered from Metabion (Table 2).
Bulk RNA sequencing was performed as previously described (J. U. G. Wagner, E. Chavakis, E. M. Rogg, M. Muhly-Reinholz, S. F. Glaser, S. Gunther, D. John, F. Bonini, A. M. Zeiher, L. Schaefer, M. J. Hannocks, R. A. Boon, S. Dimmeler, 2018, Arterioscler Thromb Vasc Biol 38(5), 1170-1177). […] Sequencing was performed on the NextSeq500 instrument (IIlumina) using v2 chemistry, resulting in minimum of 30M reads per library with 1×75 bp single end setup. […]

## CNC[C@H](O)c1cccc(O)c1 [PE, phenylephrine]
[1]
  contractile amplitude in paced CTMs: significant increase; also recorded: augment
[2]; 200 μM PE, 10 days, vs control, FIGS. 5-7
  cardiomyocyte maturation and hypertrophy (sarcomeric α-actinin staining, sarcomere organization and density): significantly increased
[2]; PE-treated vs control CTMs, Atp5a1 staining, FIGS. 9-12
  mitochondrial function and mitochondrial density: increased
[3]; FIG. 11
  glycolysis (basal extracellular acidification rate): reduction
[3]; FIGS. 9-10
  oxidation metabolism (oxygen consumption rate): increased
[4]; day 3, FIG. 41
  contraction frequency: significantly increased
[4]; day 3, FIG. 42
  volume of the CTMs: no significant change
[4]; day 3, FIG. 43
  lactate concentration in culture media: significant increase
[4]; day 20, FIG. 41
  contraction frequency: significantly increased
[4]; day 20, FIG. 43
  lactate concentration in culture media: significant increase
[4]; day 20, vs control, FIG. 42
  volume of the CTMs: significant increase
[5]
  CTM growth (size as volume): significantly increased
[6]; mature CTMs with PE vs untreated control, FIG. 35
  extracellular lactate dehydrogenase (LDH) as marker of necrosis: failed to reveal differences
[6]; phenylephrine-treated mature CTMs, FIGS. 34 and 35
  cytotoxicity in CTMs (p-γ-H2AX staining, LDH activity): no cytotoxicity
[7]
  filopodia formation in CTMs: more filopodia
  vascularization / angiogenesis of CTMs: significantly augmented
[7]; listed as phenylephrine
  filopodia formation in CTMs: induces
  vascularization / angiogenesis of CTMs: induces
[7]; FIG. 14
  number of branch points in CTMs: increased
  tube length (accumulated sprout length) in CTMs: increased
  tube thickness in CTMs: increased
HUVEC spheroids; HUVEC spheroids, 200 μM PE or 50 ng/mL VEGF, 24 hours, FIG. 15
  EC spheroid growth / vascular network growth and branching (cumulative sprout length), direct treatment: did not impact
HUVEC spheroids; neonatal rat CM treated with PE 72 hours, supernatant on HUVEC spheroids 24 hours, FIG. 17
  EC growth and sprouting with conditioned medium of PE-stimulated CM: significantly increase
HUVEC spheroids; neonatal rat FB treated with PE 72 hours, supernatant on HUVEC spheroids 24 hours, FIG. 38
  EC sprouting with conditioned medium of PE-stimulated FB: no effect
[8]; PE stimulation vs untreated CTMs, FIG. 33
  KEGG gene sets for adrenergic signaling, metabolism and contractility: enrichment and elevated expression
[8]; PE-treated vs control CTMs, FIG. 6
  titin isoform mRNA expression (N2B, N2BA2): shift towards adult-type titin isoform expression
